From PubChem BioAssay AID2060889 (Molecular Pharmacology Branch, DTP, NCI, 2025)
One block for each compound: values may come before it.

System: LG0567-F671-PDC complex spheroids viability
Assay: Anticancer human tumor LG0567-F671-PDC patient-derived lung adenocarcinoma cell line growth inhibition [RAS]
Conditions: for IC50: curve of first compound; for viability, T/C: stronger effect = lower value
How it was run: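 Multi-cell-type spheroids: tumor cells plus HUVEC endothelial cells and mesenchymal stem cells. RAS-pathway inhibitors were combined with targeted agents, each dosed in half-log steps down from clinical Cmax, or from 10 microM when Cmax was unknown.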
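Also: spheroids exposed to compound for seven days before readout.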
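For IC50 in this document: luminescence signal used as a proxy for viable cells.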

IC50 (second compound 0.000949 µM): < 31.6 nM
IC50 (second compound 0.003 µM): < 31.6 nM
IC50 (second compound 0.00949 µM): < 31.6 nM
IC50 (second compound 0.03 µM): < 31.6 nM
IC50 (second compound 0.0949 µM): < 31.6 nM
IC50 (second compound 0.3 µM): < 31.6 nM
SMILES: Cc1nc(N2CCC3(CC2)COC(C)C3N)c(CO)nc1Sc1ccnc(N)c1Cl (stereo unspecified) + CCn1c(-c2cc(N3CCN(C)CC3)cnc2C(C)OC)c2c3cc(ccc31)-c1csc(n1)CC(NC(=O)C1CC1C)C(=O)N1CCCC(N1)C(=O)OCC(C)(C)C2
viability, T/C (second compound 0.000949 µM, first compound 0.0316 µM): 13.4%
viability, T/C (second compound 0.000949 µM, first compound 0.1 µM): 9.61%
viability, T/C (second compound 0.000949 µM, first compound 0.316 µM): 5.09%
viability, T/C (second compound 0.000949 µM, first compound 1 µM): 3.4%
viability, T/C (second compound 0.000949 µM, first compound 3.16 µM): 2.1%
viability, T/C (second compound 0.000949 µM, first compound 10 µM): 1.79%
viability, T/C (second compound 0.003 µM, first compound 0.0316 µM): 6.69%
viability, T/C (second compound 0.003 µM, first compound 0.1 µM): 5.75%
viability, T/C (second compound 0.003 µM, first compound 0.316 µM): 2.58%
viability, T/C (second compound 0.003 µM, first compound 1 µM): 2.04%
viability, T/C (second compound 0.003 µM, first compound 3.16 µM): 1.52%
viability, T/C (second compound 0.003 µM, first compound 10 µM): 1.27%
viability, T/C (second compound 0.00949 µM, first compound 0.0316 µM): 3.68%
viability, T/C (second compound 0.00949 µM, first compound 0.1 µM): 3.22%
viability, T/C (second compound 0.00949 µM, first compound 0.316 µM): 1.87%
viability, T/C (second compound 0.00949 µM, first compound 1 µM): 1.37%
viability, T/C (second compound 0.00949 µM, first compound 3.16 µM): 1.14%
viability, T/C (second compound 0.00949 µM, first compound 10 µM): 1.07%
viability, T/C (second compound 0.03 µM, first compound 0.0316 µM): 2.35%
viability, T/C (second compound 0.03 µM, first compound 0.1 µM): 1.85%
viability, T/C (second compound 0.03 µM, first compound 0.316 µM): 1.58%
viability, T/C (second compound 0.03 µM, first compound 1 µM): 1.41%
viability, T/C (second compound 0.03 µM, first compound 3.16 µM): 1.06%
viability, T/C (second compound 0.03 µM, first compound 10 µM): 0.91%
viability, T/C (second compound 0.0949 µM, first compound 0.0316 µM): 2.09%
viability, T/C (second compound 0.0949 µM, first compound 0.1 µM): 1.47%
viability, T/C (second compound 0.0949 µM, first compound 0.316 µM): 1.37%
viability, T/C (second compound 0.0949 µM, first compound 1 µM): 0.88%
viability, T/C (second compound 0.0949 µM, first compound 3.16 µM): 0.94%
viability, T/C (second compound 0.0949 µM, first compound 10 µM): 0.69%
viability, T/C (second compound 0.3 µM, first compound 0.0316 µM): 1.86%
viability, T/C (second compound 0.3 µM, first compound 0.1 µM): 1.2%
viability, T/C (second compound 0.3 µM, first compound 0.316 µM): 0.98%
viability, T/C (second compound 0.3 µM, first compound 1 µM): 0.98%
viability, T/C (second compound 0.3 µM, first compound 3.16 µM): 0.68%
viability, T/C (second compound 0.3 µM, first compound 10 µM): 0.66%

IC50 (second compound 0.000949 µM): < 0.949 nM
IC50 (second compound 0.003 µM): < 0.949 nM
IC50 (second compound 0.00949 µM): < 0.949 nM
IC50 (second compound 0.03 µM): < 0.949 nM
IC50 (second compound 0.0949 µM): < 0.949 nM
IC50 (second compound 0.3 µM): < 0.949 nM
SMILES: CC1(C)CCC(Nc2ncc(C(F)(F)F)c(-c3c[nH]c4c(P(C)(C)=O)c(C#N)ccc34)n2)CN1 (stereo unspecified) + CCn1c(-c2cc(N3CCN(C)CC3)cnc2C(C)OC)c2c3cc(ccc31)-c1csc(n1)CC(NC(=O)C1CC1C)C(=O)N1CCCC(N1)C(=O)OCC(C)(C)C2
viability, T/C (second compound 0.000949 µM, first compound 0.000949 µM): 18.6%
viability, T/C (second compound 0.000949 µM, first compound 0.003 µM): 17.4%
viability, T/C (second compound 0.000949 µM, first compound 0.00949 µM): 15.6%
viability, T/C (second compound 0.000949 µM, first compound 0.03 µM): 18.6%
viability, T/C (second compound 0.000949 µM, first compound 0.0949 µM): 19.4%
viability, T/C (second compound 0.000949 µM, first compound 0.3 µM): 20.3%
viability, T/C (second compound 0.003 µM, first compound 0.000949 µM): 9.04%
viability, T/C (second compound 0.003 µM, first compound 0.003 µM): 8.93%
viability, T/C (second compound 0.003 µM, first compound 0.00949 µM): 9.61%
viability, T/C (second compound 0.003 µM, first compound 0.03 µM): 8.68%
viability, T/C (second compound 0.003 µM, first compound 0.0949 µM): 10.7%
viability, T/C (second compound 0.003 µM, first compound 0.3 µM): 11.1%
viability, T/C (second compound 0.00949 µM, first compound 0.000949 µM): 5.65%
viability, T/C (second compound 0.00949 µM, first compound 0.003 µM): 5.79%
viability, T/C (second compound 0.00949 µM, first compound 0.00949 µM): 5.79%
viability, T/C (second compound 0.00949 µM, first compound 0.03 µM): 6.44%
viability, T/C (second compound 0.00949 µM, first compound 0.0949 µM): 6.98%
viability, T/C (second compound 0.00949 µM, first compound 0.3 µM): 7.15%
viability, T/C (second compound 0.03 µM, first compound 0.000949 µM): 4.09%
viability, T/C (second compound 0.03 µM, first compound 0.003 µM): 4.19%
viability, T/C (second compound 0.03 µM, first compound 0.00949 µM): 4.86%
viability, T/C (second compound 0.03 µM, first compound 0.03 µM): 4.81%
viability, T/C (second compound 0.03 µM, first compound 0.0949 µM): 5.36%
viability, T/C (second compound 0.03 µM, first compound 0.3 µM): 5.18%
viability, T/C (second compound 0.0949 µM, first compound 0.000949 µM): 2.85%
viability, T/C (second compound 0.0949 µM, first compound 0.003 µM): 3.65%
viability, T/C (second compound 0.0949 µM, first compound 0.00949 µM): 4.21%
viability, T/C (second compound 0.0949 µM, first compound 0.03 µM): 4.25%
viability, T/C (second compound 0.0949 µM, first compound 0.0949 µM): 4.38%
viability, T/C (second compound 0.0949 µM, first compound 0.3 µM): 4.66%
viability, T/C (second compound 0.3 µM, first compound 0.000949 µM): 2.87%
viability, T/C (second compound 0.3 µM, first compound 0.003 µM): 2.91%
viability, T/C (second compound 0.3 µM, first compound 0.00949 µM): 3.44%
viability, T/C (second compound 0.3 µM, first compound 0.03 µM): 3.64%
viability, T/C (second compound 0.3 µM, first compound 0.0949 µM): 4.02%
viability, T/C (second compound 0.3 µM, first compound 0.3 µM): 3.88%

IC50 (second compound 0.00316 µM): < 3.16 nM
IC50 (second compound 0.01 µM): < 3.16 nM
IC50 (second compound 0.0316 µM): < 3.16 nM
IC50 (second compound 0.1 µM): < 3.16 nM
IC50 (second compound 0.316 µM): < 3.16 nM
IC50 (second compound 1 µM): < 3.16 nM
SMILES: CCN1CCN(Cc2ccc(Nc3ncc(F)c(-c4cc(F)c5nc(C)n(C(C)C)c5c4)n3)nc2)CC1 + C=CC(=O)N1CCN(c2nc(OCC3CCCN3C)nc3c(F)c(-c4nc(N)cc(C)c4C(F)(F)F)c(Cl)cc23)C(C)C1
viability, T/C (second compound 0.00316 µM, first compound 0.00316 µM): 16.6%
viability, T/C (second compound 0.00316 µM, first compound 0.01 µM): 14.9%
viability, T/C (second compound 0.00316 µM, first compound 0.0316 µM): 13.7%
viability, T/C (second compound 0.00316 µM, first compound 0.1 µM): 14.2%
viability, T/C (second compound 0.00316 µM, first compound 0.316 µM): 16.6%
viability, T/C (second compound 0.00316 µM, first compound 1 µM): 22%
viability, T/C (second compound 0.01 µM, first compound 0.00316 µM): 13.5%
viability, T/C (second compound 0.01 µM, first compound 0.01 µM): 14.1%
viability, T/C (second compound 0.01 µM, first compound 0.0316 µM): 14.4%
viability, T/C (second compound 0.01 µM, first compound 0.1 µM): 11.8%
viability, T/C (second compound 0.01 µM, first compound 0.316 µM): 14.9%
viability, T/C (second compound 0.01 µM, first compound 1 µM): 20.2%
viability, T/C (second compound 0.0316 µM, first compound 0.00316 µM): 14.8%
viability, T/C (second compound 0.0316 µM, first compound 0.01 µM): 13.1%
viability, T/C (second compound 0.0316 µM, first compound 0.0316 µM): 11.7%
viability, T/C (second compound 0.0316 µM, first compound 0.1 µM): 12.4%
viability, T/C (second compound 0.0316 µM, first compound 0.316 µM): 14.3%
viability, T/C (second compound 0.0316 µM, first compound 1 µM): 21.2%
viability, T/C (second compound 0.1 µM, first compound 0.00316 µM): 11.7%
viability, T/C (second compound 0.1 µM, first compound 0.01 µM): 11.5%
viability, T/C (second compound 0.1 µM, first compound 0.0316 µM): 12.4%
viability, T/C (second compound 0.1 µM, first compound 0.1 µM): 11.5%
viability, T/C (second compound 0.1 µM, first compound 0.316 µM): 15%
viability, T/C (second compound 0.1 µM, first compound 1 µM): 18.1%
viability, T/C (second compound 0.316 µM, first compound 0.00316 µM): 12.7%
viability, T/C (second compound 0.316 µM, first compound 0.01 µM): 13.1%
viability, T/C (second compound 0.316 µM, first compound 0.0316 µM): 11.9%
viability, T/C (second compound 0.316 µM, first compound 0.1 µM): 11.3%
viability, T/C (second compound 0.316 µM, first compound 0.316 µM): 13.8%
viability, T/C (second compound 0.316 µM, first compound 1 µM): 17.2%
viability, T/C (second compound 1 µM, first compound 0.00316 µM): 13.4%
viability, T/C (second compound 1 µM, first compound 0.01 µM): 14.9%
viability, T/C (second compound 1 µM, first compound 0.0316 µM): 12.6%
viability, T/C (second compound 1 µM, first compound 0.1 µM): 13.7%
viability, T/C (second compound 1 µM, first compound 0.316 µM): 16.1%
viability, T/C (second compound 1 µM, first compound 1 µM): 20.9%
